Test [1] has as its system RAW264.7. As to the kind of experiment: Antiinflammatory activity against LPS-induced mouse RAW264.7 cells assessed as inhibition of NO production preincubated for 1 hr followed by LPS stimulation and measured after 24 hrs by Greiss reagent based assay. It counts as functional, cell-based.
Test [2] deals with RAW264.7. Kind of test: Inhibition of MD2 in LPS-stimulated mouse RAW264.7 cells assessed as reduction in p38 phosphorylation at 2.5 to 10 uM measured by immunoblot analysis. The following applies: dose 2.5-10 µM.
Test [3] has as its system RAW264.7. Kind of test: Antiinflammatory activity against LPS-induced mouse RAW264.7 cells assessed as downregulation of iNOS protein expression at 2.5 to 10 uM by western blot analysis. It counts as functional, cell-based. The following applies: dose 2.5-10 µM. In general terms: Immunoblotting shows a protein as a band on a membrane.
Test [4] has as its system RAW264.7. As to the kind of experiment: Antiinflammatory activity against LPS-induced mouse RAW264.7 cells assessed as reduction in TNF-alpha production preincubated for 1 hr followed by LPS stimulation and measured after 24 hrs by ELISA. It is filed as functional, cell-based. The following applies: dose 2.5-10 µM, time 25.0 hrs. In general terms: ELISA stands for enzyme-linked immunosorbent assay.

Test [5] concerns RAW264.7. As to the kind of experiment: Antiinflammatory activity against LPS-induced mouse RAW264.7 cells assessed as reduction in IL-6 production preincubated for 1 hr followed by LPS stimulation and measured after 24 hrs by ELISA. It is filed as functional, cell-based. The following applies: dose 2.5-10 µM, time 25.0 hrs.
Test [6] relates to RAW264.7. Kind of test: Inhibition of MD2 in mouse RAW264.7 cells assessed as reduction in LPS-induced TLR4/MD2 complex formation preincubated for 30 mins followed by LPS stimulation for 30 mins by co-immunoprecipitation analysis. It is filed as cell-based. The following applies: dose 2.5-10 µM, time 60.0 min.
The subject of test [7] is RAW264.7. Kind of test: Downregulation of TLR4 expression in mouse RAW264.7 cells at 2.5 to 10 uM by western blot analysis. It is filed as functional, cell-based. The following applies: dose 2.5-10 µM.
For test [8], the system named is RAW264.7. As to the kind of experiment: Inhibition of MD2 in LPS-stimulated mouse RAW 264.7 cells assessed as reduction in p65 phosphorylation by western blot analysis. The following applies: dose 2.5-10 µM.
Test [9] relates to RAW264.7. As to the kind of experiment: Antiinflammatory activity against LPS-induced MD2-knockdown mouse RAW264.7 cells assessed as reduction in TNF-alpha mRNA expression by qRT-PCR analysis. It is filed as functional, cell-based.
Test [10] relates to RAW264.7. As to the kind of experiment: Inhibition of MD2 in LPS-stimulated mouse RAW 264.7 cells assessed as reduction in IKKbeta phosphorylation by western blot analysis. The following applies: dose 2.5-10 µM.
The species named for test [11] is Homo sapiens. As to the kind of experiment: Binding affinity to MD2 (unknown origin) assessed as association constant by surface plasmon resonance assay. Background: SPR reads the build-up and loss of mass on a sensor chip optically.
Test [12] has as its system RAW264.7. Kind of test: Inhibition of MD2 in LPS-stimulated mouse RAW264.7 cells assessed as reduction in p65 nuclear translocation by measuring red fluorescence intensity in nucleus at 10 uM preincubated for 1 hr followed by LPS stimulation and measured after 6 hrs by DAPI staining based confocal microscopy. The following applies: time 7.0 hrs.
The test system of test [13] is RAW264.7. As to the kind of experiment: Binding affinity to MD2 in mouse RAW264.7 cells assessed as inhibition of LPS/MD2 colocalization at 10 uM preincubated for 1 hr followed by incubation with FITC-conjugated LPS for 1 hr by DAPI staining based confocal microscopy. It counts as cell-based. The following applies: time 2.0 hrs.
The subject of test [14] is RAW264.7. Kind of test: Antiinflammatory activity against LPS-induced MD2-knockdown mouse RAW264.7 cells assessed as reduction in IL-6 mRNA expression by qRT-PCR analysis. It counts as functional, cell-based.
The subject of test [15] is RAW264.7. As to the kind of experiment: Antiinflammatory activity against LPS-induced mouse RAW264.7 cells assessed as downregulation of COX2 protein expression at 2.5 to 10 uM by western blot analysis. It is filed as functional, cell-based. The following applies: dose 2.5-10 µM.
In test [16] the test system is RAW264.7. As to the kind of experiment: Inhibition of MD2 in LPS-stimulated mouse RAW264.7 cells assessed as reduction in ERK phosphorylation at 2.5 to 10 uM measured by immunoblot analysis. The following applies: dose 2.5-10 µM.
Test [17] in a line: Binding affinity to MD2 (unknown origin) assessed as equilibrium dissociation constant by surface plasmon resonance assay. Also noted: species or system Homo sapiens.
For test [18], the system named is RAW264.7. As to the kind of experiment: Antiinflammatory activity against LPS-induced MD2-knockdown mouse RAW264.7 cells assessed as reduction in COX-2 mRNA expression by qRT-PCR analysis. It is filed as functional, cell-based.
Test [19] has as its system RAW264.7. Kind of test: Antiinflammatory activity against LPS-induced MD2-knockdown mouse RAW264.7 cells assessed as reduction in TNF-alpha secretion pretreated for 1 hr followed by LPS stimulation and measured after 24 hrs by ELISA. It counts as functional, cell-based. The following applies: time 25.0 hrs.
Test [20] relates to RAW264.7. As to the kind of experiment: Antiinflammatory activity against LPS-induced mouse RAW264.7 cells assessed as reduction in IL-6 production at 10 uM preincubated for 1 hr followed by LPS stimulation and measured after 24 hrs by ELISA relative to control. The following applies: time 25 hrs. It counts as functional.
The test system of test [21] is RAW264.7. As to the kind of experiment: Antiinflammatory activity against LPS-induced mouse RAW264.7 cells assessed as reduction in TNF-alpha production at 10 uM preincubated for 1 hr followed by LPS stimulation and measured after 24 hrs by ELISA relative to control. It counts as functional. The following applies: time 25 hrs.
In test [22] the test system is RAW264.7. Kind of test: Downregulation of MD2 expression in mouse RAW264.7 cells at 2.5 to 10 uM by western blot analysis. It counts as functional, cell-based. The following applies: dose 2.5-10 µM.
The subject of test [23] is RAW264.7. Kind of test: Antiinflammatory activity against LPS-induced MD2-knockdown mouse RAW264.7 cells assessed as reduction in iNOS mRNA expression by qRT-PCR analysis. It counts as functional, cell-based.
Test [24] relates to RAW264.7. Kind of test: Inhibition of MD2 in LPS-stimulated mouse RAW264.7 cells assessed as reduction in JNK phosphorylation at 2.5 to 10 uM measured by immunoblot analysis. The following applies: dose 2.5-10 µM.
The species named for test [25] is Homo sapiens. As to the kind of experiment: Binding affinity to MD2 (unknown origin) assessed as dissociation constant by surface plasmon resonance assay.
Test [26] addresses T1, Toll-like receptor 4 (Mus musculus) (UniProt Q9QUK6).
T1 sequence (whole entry): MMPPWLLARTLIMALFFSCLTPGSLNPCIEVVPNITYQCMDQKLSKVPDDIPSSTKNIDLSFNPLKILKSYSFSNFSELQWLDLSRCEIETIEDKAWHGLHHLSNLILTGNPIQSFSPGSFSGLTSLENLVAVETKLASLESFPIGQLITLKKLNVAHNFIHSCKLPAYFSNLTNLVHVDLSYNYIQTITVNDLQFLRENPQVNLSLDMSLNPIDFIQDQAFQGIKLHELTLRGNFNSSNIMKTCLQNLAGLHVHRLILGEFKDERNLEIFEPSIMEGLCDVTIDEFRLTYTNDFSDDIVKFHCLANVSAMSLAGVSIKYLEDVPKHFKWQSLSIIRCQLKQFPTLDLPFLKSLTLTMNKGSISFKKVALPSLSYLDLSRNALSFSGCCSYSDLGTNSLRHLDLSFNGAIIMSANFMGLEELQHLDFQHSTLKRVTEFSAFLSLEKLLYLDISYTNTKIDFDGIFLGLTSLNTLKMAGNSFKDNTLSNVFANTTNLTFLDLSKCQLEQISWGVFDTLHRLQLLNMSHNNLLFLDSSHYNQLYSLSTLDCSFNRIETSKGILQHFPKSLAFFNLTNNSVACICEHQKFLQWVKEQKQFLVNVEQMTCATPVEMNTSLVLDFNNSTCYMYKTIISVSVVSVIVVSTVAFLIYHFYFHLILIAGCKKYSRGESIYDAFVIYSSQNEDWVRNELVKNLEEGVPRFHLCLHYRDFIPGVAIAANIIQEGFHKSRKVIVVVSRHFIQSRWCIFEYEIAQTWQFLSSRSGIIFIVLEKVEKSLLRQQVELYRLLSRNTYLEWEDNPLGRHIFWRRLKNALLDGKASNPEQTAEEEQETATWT
Kind of test: Binding affinity to TLR4 in mouse RAW264.7 cells assessed as inhibition of LPS/TLR4 colocalization at 10 uM preincubated for 1 hr followed by incubation with FITC-conjugated LPS for 1 hr by DAPI staining based confocal microscopy. It counts as cell-based. The following applies: time 2.0 hrs.

Activity calls are given as the source filed them. The calls are words filed in the database; no cut-off is given here.

For the molecule `COc1ccc2c(c1)c(CC(=O)O)c(C)n2C(=O)c1ccc(Cl)cc1` [INDOMETHACIN], the 50% inhibitory concentration (IC50) (as a rule, the concentration at which inhibition is half-maximal) in the test on RAW264.7 [1] amounted to 11 µM.
Same read-out and setting: under `C=CC(C)(C)c1[nH]c2cccc3c2c1C[C@H]1NC[C@@H](C)[C@H](OC(C)=O)[C@H]31` stands 60.4 µM; under `C=CC(C)(C)C(=O)Nc1cccc2c1C(=O)C[C@@H]1[C@@H]2[C@@H](OC(C)=O)[C@H](C)CN1C`, 43.2 µM.
For the molecule `C=CC(C)(C)C(=O)Nc1cccc2c1C(=O)C[C@@H]1[C@H]2[C@H](OC(C)=O)[C@@H](C)CN1C`, the inhibition result in the test with RAW264.7 [2], in the test on RAW264.7 [7], in the test on RAW264.7 [12], with RAW264.7 [16], with RAW264.7 [22] and in the test with RAW264.7 [24] was “Active” throughout. Besides, the result in the test with RAW264.7 [3], with RAW264.7 [13] and in the test on RAW264.7 [15] was Active. Also, the Activity result with RAW264.7 [4] and with RAW264.7 [5] was “Dose-Dependent Effect” throughout. The inhibition result in the test with RAW264.7 [6], in the test with RAW264.7 [8] and in the test with RAW264.7 [10] was “Dose-Dependent Effect” throughout. Also, the outcome (in the test with RAW264.7 [9]; in the test with RAW264.7 [14]; with RAW264.7 [18]; in the test on RAW264.7 [19]; in the test with RAW264.7 [23]; in [26]) was inactive. Also, in the test filed under Homo sapiens [11], the Ka amounted to 373 M⁻¹ s⁻¹. Moreover, the Kd (commonly the equilibrium constant for the complex coming apart) in test [17] was determined as 14.5 µM. Moreover, the half-maximal inhibitory concentration (IC50) with RAW264.7 [1] is 3.48 µM. The inhibition (usually the relative decrease from the control value, in per cent) at 10 µM in the test on RAW264.7 [20] was found to be 84%; with RAW264.7 [21] it was 68.2%. Moreover, the Kdiss in the test filed under Homo sapiens [25] is 0.0054 s⁻¹.
Regarding `C=CC(C)(C)c1[nH]c2cccc3c2c1C[C@@H]1[C@@H]3[C@@H](OC(C)=O)[C@H](C)CN1C`, in the test with RAW264.7 [1], the 50% inhibitory concentration (IC50) was 22.8 µM.
Still for that read-out and setting: next, `C=CC(C)(C)C(=O)Nc1cccc2c3cc(C)cn(C)c-3cc(=O)c12`: 9.47 µM; `C=CC(C)(C)C(=O)Nc1cccc2c1C(=O)C[C@H]1NC[C@@H](C)[C@H](OC(C)=O)[C@H]21`: 53.3 µM.
Same read-out and setting: under `C=CC(C)(C)C(=O)Nc1cccc2c1C(=O)C[C@H]1NC[C@H](C)[C@@H](OC(C)=O)[C@@H]21` stands 7.83 µM.
